Source: ChEMBL document CHEMBL3297676, “Maximizing diversity from a kinase screen: identification of novel and selective pan-Trk inhibitors for chronic pain” (J Med Chem, 2014)
Activity calls are given as the source filed them. The rule behind the calls is not given here.

Assays:
[1] = target: T1, High affinity nerve growth factor receptor (Homo sapiens, UniProt P04629); test: Inhibition of purified TrkA cytoplasmic domain (unknown origin) by HTRF assay
Target sequence in this assay (P04629 whole entry, the tested form may be a part): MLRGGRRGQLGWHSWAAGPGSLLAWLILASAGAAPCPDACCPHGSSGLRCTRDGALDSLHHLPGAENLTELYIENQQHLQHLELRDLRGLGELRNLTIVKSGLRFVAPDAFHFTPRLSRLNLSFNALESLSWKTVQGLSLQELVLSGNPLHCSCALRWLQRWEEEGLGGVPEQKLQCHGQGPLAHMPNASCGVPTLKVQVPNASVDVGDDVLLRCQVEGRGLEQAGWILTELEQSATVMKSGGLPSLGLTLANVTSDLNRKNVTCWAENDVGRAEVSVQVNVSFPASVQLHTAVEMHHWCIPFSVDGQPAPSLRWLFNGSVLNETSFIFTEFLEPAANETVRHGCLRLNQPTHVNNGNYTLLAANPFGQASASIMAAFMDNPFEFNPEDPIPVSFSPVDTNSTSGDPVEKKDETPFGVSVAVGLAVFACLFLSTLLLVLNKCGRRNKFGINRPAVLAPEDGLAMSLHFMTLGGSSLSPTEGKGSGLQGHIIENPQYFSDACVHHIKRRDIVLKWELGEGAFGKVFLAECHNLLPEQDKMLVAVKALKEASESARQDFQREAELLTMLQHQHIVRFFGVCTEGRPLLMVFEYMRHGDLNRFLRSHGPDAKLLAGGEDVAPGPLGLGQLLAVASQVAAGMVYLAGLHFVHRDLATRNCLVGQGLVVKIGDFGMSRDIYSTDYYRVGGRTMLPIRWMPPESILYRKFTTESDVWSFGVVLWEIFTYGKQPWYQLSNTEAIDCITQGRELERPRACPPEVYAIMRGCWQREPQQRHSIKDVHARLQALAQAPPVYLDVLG

[2] = target: T1, High affinity nerve growth factor receptor
Target sequence in this assay (P04629 whole entry, the tested form may be a part): as above
Description: Inhibition of phsophorylated TrkA (unknown origin) assessed as inhibition of fluorescently-labelled substrate phosphorylation by CALIPER enzymatic assay

[3] = target: T1, High affinity nerve growth factor receptor; remark: listed apart in the source
Target sequence in this assay (P04629 whole entry, the tested form may be a part): as above
Description: Inhibition of human TrkA expressed in human U2OS cells assessed as inhibition of NGF-induced maximum response after 1 hr by beta-galactosidase assay

[4] = target: T1, High affinity nerve growth factor receptor; remark: listed apart in the source
Target sequence in this assay (P04629 whole entry, the tested form may be a part): as above
Description: Binding affinity to His-tagged TrkA (unknown origin) after 1 hr by SPR method

Rattus norvegicus [5] = test: Analgesic activity in po dosed Sprague-Dawley rat Chung spinal nerve ligation model assessed as reversal of mechanical hypersensitivity relative to control; type: functional, organism-based
[6] = Plasma concentration in Complete-Freunds adjuvant-induced Sprague-Dawley rat pain model at 100 mg/kg, po after 2 hrs; type: ADME, organism-based; parameters: dose 100 mg/kg, route oral
[7] = Half life in rat; type: ADME, organism-based; settings: in vivo
Rattus norvegicus [8] = test: Antiinflammatory activity in Complete-Freunds adjuvant-induced Sprague-Dawley rat pain model assessed as reversal of mechanical hypersensitivity at 30 mg/kg, po bid for 7 days; type: functional, organism-based; parameters: dose 30 mg/kg
[9] = Ratio of fraction unbound in plasma of Complete-Freunds adjuvant-induced Sprague-Dawley rat pain model at 30 mg/kg, po after 2 hrs to IC50 for human TrkA expressed in human U2OS cells; type: ADME, organism-based; parameters: dose 30 mg/kg, route oral; settings: in vivo
Plasma [10] = test: Fraction unbound in plasma of Sprague-Dawley rat Chung spinal nerve ligation model assessed as reversal of mechanical hypersensitivity at 10 mg/kg, po; type: ADME, organism-based; parameters: dose 10 mg/kg, route oral; settings: in vivo
[11] = Ratio of fraction unbound in plasma of Sprague-Dawley rat Chung spinal nerve ligation model assessed as reversal of mechanical hypersensitivity at 30 mg/kg, po to IC50 for human TrkA expressed in human U2OS cells; type: ADME, organism-based; parameters: dose 30 mg/kg, route oral; settings: in vivo
[12] = Ratio of fraction unbound in plasma of Complete-Freunds adjuvant-induced Sprague-Dawley rat pain model at 10 mg/kg, po after 2 hrs to IC50 for human TrkA expressed in human U2OS cells; type: ADME, organism-based; parameters: dose 10 mg/kg, route oral; settings: in vivo
[13] = target: T1, High affinity nerve growth factor receptor; remark: listed apart in the source
Target sequence in this assay (P04629 33-796 limits assumed): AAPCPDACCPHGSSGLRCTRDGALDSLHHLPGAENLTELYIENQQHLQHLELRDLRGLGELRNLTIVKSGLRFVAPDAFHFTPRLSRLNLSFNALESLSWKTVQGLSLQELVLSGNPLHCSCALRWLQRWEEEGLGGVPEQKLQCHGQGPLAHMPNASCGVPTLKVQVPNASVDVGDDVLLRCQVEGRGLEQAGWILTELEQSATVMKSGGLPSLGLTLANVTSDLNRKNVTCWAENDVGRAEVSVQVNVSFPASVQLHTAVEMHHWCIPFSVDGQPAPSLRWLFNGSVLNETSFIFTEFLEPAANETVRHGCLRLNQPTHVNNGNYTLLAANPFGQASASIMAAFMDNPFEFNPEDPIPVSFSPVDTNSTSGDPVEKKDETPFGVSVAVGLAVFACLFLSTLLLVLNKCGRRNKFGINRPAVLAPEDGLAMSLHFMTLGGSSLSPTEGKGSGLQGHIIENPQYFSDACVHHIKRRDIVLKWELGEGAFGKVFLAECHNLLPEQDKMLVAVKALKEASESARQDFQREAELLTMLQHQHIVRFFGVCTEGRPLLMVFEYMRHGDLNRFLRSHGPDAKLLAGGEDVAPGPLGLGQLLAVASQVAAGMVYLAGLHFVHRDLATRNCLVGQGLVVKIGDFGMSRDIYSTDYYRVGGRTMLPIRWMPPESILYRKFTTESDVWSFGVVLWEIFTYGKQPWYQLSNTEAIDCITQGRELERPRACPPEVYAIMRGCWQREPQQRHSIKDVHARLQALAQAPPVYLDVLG
Description: Binding affinity to His-tagged TrkA (unknown origin) assessed as half life after 1 hr by SPR method

Plasma [14] = test: Fraction unbound in plasma of Sprague-Dawley rat Chung spinal nerve ligation model assessed as reversal of mechanical hypersensitivity at 30 mg/kg, po; type: ADME, organism-based; parameters: dose 30 mg/kg, route oral; settings: in vivo
Plasma [15] = test: Fraction unbound in plasma of Complete-Freunds adjuvant-induced Sprague-Dawley rat pain model at 10 mg/kg, po after 2 hrs; type: ADME, organism-based; parameters: dose 10 mg/kg, route oral; settings: in vivo
Plasma [16] = test: Fraction unbound in plasma of Sprague-Dawley rat Chung spinal nerve ligation model assessed as reversal of mechanical hypersensitivity at 100 mg/kg, po; type: ADME, organism-based; parameters: dose 100 mg/kg, route oral; settings: in vivo
[17] = Ratio of fraction unbound in plasma of Sprague-Dawley rat Chung spinal nerve ligation model assessed as reversal of mechanical hypersensitivity at 10 mg/kg, po to IC50 for human TrkA expressed in human U2OS cells; type: ADME, organism-based; parameters: dose 10 mg/kg, route oral; settings: in vivo
[18] = Ratio of fraction unbound in plasma of Sprague-Dawley rat Chung spinal nerve ligation model assessed as reversal of mechanical hypersensitivity at 100 mg/kg, po to IC50 for human TrkA expressed in human U2OS cells; type: ADME, organism-based; parameters: dose 100 mg/kg, route oral; settings: in vivo
Plasma [19] = test: Plasma concentration in Sprague-Dawley rat Chung spinal nerve ligation model assessed as reversal of mechanical hypersensitivity at 100 mg/kg, po; type: ADME, organism-based; parameters: dose 100 mg/kg, route oral; settings: in vivo
[20] = Oral bioavailability in rat; type: ADME, organism-based; settings: in vivo
Rattus norvegicus [21] = test: Antiinflammatory activity in Complete-Freunds adjuvant-induced Sprague-Dawley rat pain model assessed as reversal of mechanical hypersensitivity at 100 mg/kg, po bid for 7 days; type: functional, organism-based; parameters: dose 100 mg/kg
[22] = Plasma concentration in Complete-Freunds adjuvant-induced Sprague-Dawley rat pain model at 10 mg/kg, po after 2 hrs; type: ADME, organism-based; parameters: dose 10 mg/kg, route oral
[23] = Plasma protein binding in rat; type: ADME, cell-free; settings: read-out: PPB (converted)
Plasma [24] = test: Fraction unbound in plasma of Complete-Freunds adjuvant-induced Sprague-Dawley rat pain model at 30 mg/kg, po after 2 hrs; type: ADME, organism-based; parameters: dose 30 mg/kg, route oral; settings: in vivo
Plasma [25] = test: Plasma concentration in Sprague-Dawley rat Chung spinal nerve ligation model assessed as reversal of mechanical hypersensitivity at 10 mg/kg, po; type: ADME, organism-based; parameters: dose 10 mg/kg, route oral; settings: in vivo
Plasma [26] = test: Fraction unbound in plasma of Complete-Freunds adjuvant-induced Sprague-Dawley rat pain model at 100 mg/kg, po after 2 hrs; type: ADME, organism-based; parameters: dose 100 mg/kg, route oral; settings: in vivo
[27] = Plasma concentration in Complete-Freunds adjuvant-induced Sprague-Dawley rat pain model at 30 mg/kg, po after 2 hrs; type: ADME, organism-based; parameters: dose 30 mg/kg, route oral
Plasma [28] = test: Plasma concentration in Sprague-Dawley rat Chung spinal nerve ligation model assessed as reversal of mechanical hypersensitivity at 30 mg/kg, po; type: ADME, organism-based; parameters: dose 30 mg/kg, route oral; settings: in vivo
[29] = Ratio of fraction unbound in plasma of Complete-Freunds adjuvant-induced Sprague-Dawley rat pain model at 100 mg/kg, po after 2 hrs to IC50 for human TrkA expressed in human U2OS cells; type: ADME, organism-based; parameters: dose 100 mg/kg, route oral; settings: in vivo
Rattus norvegicus [30] = test: Analgesic activity in Sprague-Dawley rat Chung spinal nerve ligation model assessed as reversal of mechanical hypersensitivity at 30 mg/kg, po relative to control; type: functional
[31] = Clearance in rat; type: ADME, organism-based; settings: in vivo

SMILES: Cc1cn2cc(CNc3ncnc4ccc(N5CCC[C@@H]5c5cc(F)ccc5F)nc34)nc2s1
- IC50 [1]: 1.5 nM
- IC50 [2]: 13 nM

SMILES: CCOc1cccc(-c2nccc3c2cc(C(=O)O)n3CCOc2ccc(OC(F)(F)F)cc2)c1
- IC50 [2]: 348 nM
- IC50 [3]: 59 nM

SMILES: c1cncc(CNc2ccc3ncnc(Nc4ccc(N5CCOCC5)cc4)c3n2)c1
- IC50 [1]: 997 nM

SMILES: CN1CCN(c2ccc(Nc3ncnc4ccc(NCc5cccc(Cl)c5)nc34)cc2)CC1
- IC50 [1]: 11 nM
- Kd [4]: 63 nM
- IC50 [2]: 1690 nM

SMILES: CC(C)N(Cc1c[nH]c2ncccc12)C(=O)Nc1ccc(OC(F)(F)F)cc1
- IC50 [2]: 11 nM
- IC50 [3]: 3 nM

SMILES: Cc1cn(-c2ccc(-c3cn(CC(=O)Nc4cc(C5CC5)nn4-c4ccccc4)nn3)cc2)cn1
- IC50 [1]: 60 nM
- IC50 [3]: 9 nM

SMILES: CC(C)C[C@H](CN)CC(=O)O
- inhibition (Rattus norvegicus [5]): Active

SMILES: CC(C)(C)c1cc(NC(=O)Cn2cc(-c3ccc(-n4ccnc4)nc3)nn2)n(-c2cccnc2)n1
- concentration at 2 h [6]: 16 µM
- IC50 [1]: 9 nM
- half-life [7]: 156 min
- inhibition (Rattus norvegicus [8]): Active
- Ratio [9]: 4
- Cp(f) (Plasma [10]): 5 nM
- Ratio [11]: 6
- Ratio [12]: 1
- Kd [4]: 0.94 nM
- T1/2 [13]: 1.13 h
- Cp(f) (Plasma [14]): 34 nM
- Cp(f) (Plasma [15]): 5 nM
- Cp(f) (Plasma [16]): 115 nM
- Ratio [17]: 1
- Ratio [18]: 23
- concentration (Plasma [19]): 23 µM
- bioavailability [20]: 30%
- inhibition (Rattus norvegicus [21]): Active
- concentration at 2 h [22]: 1000 nM
- fraction unbound [23]: 0.005
- Cp(f) (Plasma [24]): 20 nM
- concentration (Plasma [25]): 1000 nM
- Cp(f) (Plasma [26]): 80 nM
- concentration at 2 h [27]: 4 µM
- concentration (Plasma [28]): 6.7 µM
- Ratio [29]: 16
- IC50 [3]: 7 nM
- inhibition in vivo at 30 mg/kg (Rattus norvegicus [30]): 50%
- clearance [31]: 16 mL/min/kg

SMILES: CCOc1cccc(-c2nccc3c2cc(C(=O)O)n3CCOc2ccc(Cl)cc2)c1
- Kd [4]: 3.5 nM
- T1/2 [13]: 2.13 h
- IC50 [2]: 653 nM
- IC50 [3]: 200 nM

SMILES: CC(C)N(Cc1cccc(-c2nccs2)c1)C(=O)Nc1ccc(OC(F)(F)F)cc1
- Kd [4]: 63 nM
- T1/2 [13]: 0.1 h
- IC50 [2]: 132 nM
- IC50 [3]: 56 nM

SMILES: CCOc1cccc(-c2nccc3c2cc(C(=O)O)n3CCOc2ccccc2)c1
- IC50 [2]: 2070 nM
- IC50 [3]: 109 nM

SMILES: N#Cc1ccc2c(c1)cc(C(=O)O)n2CCOc1ccc(OC(F)(F)F)cc1
- IC50 [2]: 118 nM
- IC50 [3]: 150 nM

SMILES: O=C(NCc1cccc(-c2nccs2)c1)Nc1ccc(OC(F)(F)F)cc1
- IC50 [2]: > 100000 nM

SMILES: O=C(O)c1cc2cc(-c3cc[nH]n3)ccc2n1CCOc1ccc(OC(F)(F)F)cc1
- IC50 [2]: 51 nM
- IC50 [3]: 29 nM

SMILES: COc1ccc2cc([C@H](C)C(=O)O)ccc2c1
- inhibition (Rattus norvegicus [8]): Active

SMILES: O=C(O)c1cc2cnccc2n1CCOc1ccc(OC(F)(F)F)cc1
- IC50 [2]: 12300 nM
- IC50 [3]: 15800 nM
